Source: patent US20020006906A1, “Novel active agent, composition containing it and use in the cosmetic, dermocosmetic, dermopharmaceutical or pharmaceutical field or on woven or nonwoven supports” (SOCIETE D'EXPLOITATION DE PRODUITS POUR LES, priority 2000, published 2002)

Columns and labels:
[1] = system: superoxide anion; test: Anti-free-radical test: xanthine/xanthine oxidase, reduction of cytochrome C (550 nm); assay type: biochemical; conditions: 0.46% (as active substance); for % anti-free radical inhibition: 25° C.
Method: The determination of the anti-free-radical effect is based on the capacity which the molecule to be studied has to inhibit or reduce the rate of reduction of cytochrome C, when it is added to the reaction medium. The superoxide anion is formed by the action of xanthine oxidase on xanthine. It induces, in the absence of a molecule capable of capturing it, the reduction of cytochrome C. The appearance of reduced cytochrome C is monitored in a spectrophotometer at 550 nm, in the presence (Trial) and in the absence (Control) of anti-free-radical molecules.
The reaction is carried out in a spectrophotometer thermostated at 25° C. and provided with a sample changer. All the kinetics are determined at least three times; the mean and the standard deviation are calculated for the three values obtained. A percentage inhibition of the rate of appearance of the coloured product (corresponding to the quantity of free superoxide anion) is therefore calculated for each active agent tested. The calculation is performed relative to the rate of appearance of the coloured product in the control (without active agent). The percentage inhibition of the appearance of the coloured product by the active agent therefore corresponds to the percentage inhibition of the superoxide anion.

[2] = system: normal human keratinocytes; test: Cell division: fluorimetric DNA assay in keratinocytes under thermal stress; assay type: cell-based
Method: The effect of the active agents on cell division is measured by a fluorimetric assay of the content of DNA in normal human keratinocytes subjected to a high thermal stress (20 minutes at 50° C.). The quantity of DNA present in the cells determines their capacity to divide. The cells are used at 60% confluence. They are incubated for 24 hours in the presence of the active agents. Cell division is determined by assaying the quantity of DNA present per well.
Four samples A, B, C and D, of a culture normal human keratinocytes, are subjected to the following respective treatments:
Sample A: cells not treated and left at room temperature.
Sample B: cells not treated and heated at 50° C. for 20 minutes.
Sample D: cells left incubated for 24 hours with panthenol (concentration: 12.5×10^−6% by weight of active substance) and heated at 50° C. for 20 minutes.
The DNA in each of the samples is then assayed.

| % anti-free radical inhibition [1] [%] | Anti-free radical activity (in words) [1] | SMILES | Relative level of cell division (base 100: batch B) ([2]; Sample D: 12.5×10^−6% active substance, 24 hours, 50° C. for 20 minutes) | Cell division (in μg/well), DNA per well ([2]; Sample D: 24 hours with 12.5×10^−6% by weight of active substance, then 50° C. for 20 minutes (heated untreated sample B 3.7)) [μg/well] | Effect on cell division under heat (in words) ([2]; keratinocytes heated at 50° C. for 20 minutes) |
| --- | --- | --- | --- | --- | --- |
| 94 |  | O=C1O[C@H]([C@@H](O)CO)C(O)=C1O [Vitamin C, ascorbic acid] |  |  |  |
| 0 | nonexistent | CC(C)(CO)C(O)C(=O)NCCCO (stereo not drawn) [Panthenol, 2,4-dihydroxy-N-(3-hydroxypropyl)-3,3-dimethylbutanamide] | 116.2 | 4.3 | only compensates for these effects |
